# Measurements from patent US20210369583A1, “COMPOSITIONS FOR PROVIDING SKIN CARE BENEFITS AND METHODS OF USE” (Danisco US Inc., priority 2018, published 2021).
# Marks after values point to notes of the source that are not given here.
# Columns and labels:
# Type in all cases: cell-based
# [1] = tested on: Aryl hydrocarbon receptor (AhR); assay: Immunostaining of AHR in human skin explants, image analysis
# Experimental: (§1) 59 human skin explants of an average diameter of 14 mm (±1 mm) were prepared on an abdoplasty coming from a person. The explants were kept in survival in BEM culture medium at 37° C. in a humid, 5%-CO2 atmosphere.
# (§2) The tested products were topically applied on the basis of 2 μl per cm^2 and spread using a small spatula twice a day (morning and evening) on day 0, 1, 2, 3 and 4.
# (§3) On D4, the explants of the batches ML and PML were placed on the 3D grid with 900 μl of HBSS and placed into the PolluBox® system.
# (§4) 3 mL of the solution <<ML>> (supplemented with 150 μl/ml of NaCl 0.9%) were exposed by vaporization for 1 hour and half, as shown in the figure below.
# Aryl hydrocarbon receptor (AhR) is a transcriptional factor implicated in molecular response following the exposure of several compounds, including aromatic polycyclic hydrocarbon and ozone (Haarmann-Stemmann et al. 2012.JID 132:7-9; Afaq et al., 2009 JID 129:2396-2403). AhR is involved in activation of cytochrome family genes and CYP450 detoxification enzymes. In presence of pollution AhR is dissociated from the protein complex (HSP90), translocated to the nucleus, dimerized with ARNt, and binds to the DNA on target genes (Cytochrome family—activated in response to xenobiotics) (Ikuta et al., 2009. Biochemical pharmacology. 77:588-596). […] The immunostaining was performed using an automated slide processing system (Autostainer, Dako) and assessed by microscopical observation. Concerned batches: all the batches
# The images analyses were performed on all the images (9 to 12 images) of each batch using the CellD storing software (Olympus Microscopy, Matrix Optics (M)SdnBhd, Taman Mayhang, Maylasia). For each batch of explants, the percentage of the region of interest covered by the staining (stained surface percentage) was determined by image analysis. […]
# The ΔML for each treatment P was calculated using the same method to obtain the ΔPML, i.e. the variation of the Surf % induced by the pollutants exposure when treated with P. […]
# [2] = tested on: living human skin explants; assay: Biochemical assay of MDA (lipid peroxidation) on living human skin explants exposed to pollutants
# Experimental: Product A (Table 11) was diluted in water to obtain the following products at concentrations: product P1=A at 4%, product P2=A at 2% and product P3=A at 1%.
# as §1, §2, §3, §4
# The MDA assay was realized with an enhanced method of the TBARs (Thiobarbituric Acid Reactive Species) assay. The MDA was assayed in HBSS medium by addition of TBARs solution (thiobarbituric acid, hydrochloric acid and tricholoroacetic acid) and placed in a water bath (80° C. for 15 minutes). A lot of substances (like glucose) which are not related with lipoperoxidation, react with thiobarbituric acid (ThioBarbituric Acid Reagents=TBARS), so to enhance the specificity of the assay, the MDA was extracted by a liquid/liquid extraction with butanol. The MDA in butanol was measured in spectrofluorimetry (excitation: 515 nm, emission: 550 nm) using a Tecan Infinite M200 Pro microplate reader. Using this assay, MDA contained in the culture medium BEMc on […] was measured for the 4 explants per batch. The MDA concentration was expressed in pmol of MDA/ml of the medium. Concerned batches: all batches on day 5, 4 explants per batch.
# The average of the blank batch TJ5 was calculated (154.0 nmol/L). Then, for each explant of MLJ5, this average value was subtracted from […]. That corresponds to calculating the delta (increase) of MDA induced by ML for each explant compared to the average of the batch without ML, it is ΔML.
# These average deltas were then compared to the average delta of MDA induction without treatment (ΔML).
# [3] = tested on: human living skin explant; assay: Cell viability of human living skin explants (UV study); conditions: non irradiated; day 4
# Experimental: (§5) human skin explants of an average diameter of 12 mm (±1 mm) were prepared on an abdoplasty coming from a person). The explants were kept in survival in BEM culture medium at 37° C. in a humid, 5%-CO2 atmosphere.
# (§6) On day 0 (D0), day 1, day 2 and day 3 (3 hours before irradiation), the tested products were applied topically on surface of skin explants at the rate of 2 mg/cm^2, twice a day for D1 and D2 and once on DO and D3. […] The medium was half renewed (1 ml per well) on day 2.
# (§7) On D3, the culture media of all the batches was replaced by HBSS solution (Hank's Balanced Saline Solution; 1 ml per explant). The batches “UV” were irradiated by UVA+ UVB using a UV simulator Vibert Lourmat RMX 3W with a dose of 18 J/cm2 of UVA (4 MED, minimal erythemal dose) and 0.3 J/cm2 of UVB (2 MED). The unirradiated batches were kept in HBSS in the dark. At the end of the irradiation the explants were put back in 2 mL of BEM medium.
# (§8) After fixation for 24 hours in buffered formalin, the samples were dehydrated and impregnated in paraffin using a Leica PEARL dehydration automat. The samples were embedded using a Leica EG 1160 embedding station. 5-μm-thick sections were made using a Leica RM 2125 Minot-type microtome, and the sections were mounted on Superfrost® histological glass slides. The frozen samples were cut into 7-μm-thick sections using a Leica CM 3050 cryostat. Sections were then mounted on Superfrost® plus silanized glass slides. The microscopical observations were realized using a Leica DMLB or Olympus BX43 microscope. Pictures were digitized with a numeric DP72 Olympus camera with CellD storing software.
# [4] = tested on: human living skin explant; assay: TUNEL assay (UV-induced DNA damage) on human living skin explants; conditions: UV irradiated
# Experimental: as §5, §6, §7, §8
# DNA oxidization is a type of damage that can be promoted by reactive oxygen species (ROS), generated by UV exposure. […] The staining was assessed by microscopical observation. Batches analyzed were T, TUV, P1UV, P2UV, P3UV at day 4 also referred to as TJ4, TUVJ4, P1UVJ4, P2UVJ4, P3UVJ4 (T=Control batch non treated non irradiated; TJ4=T at Day 4 (D4); TUV: control batch non treated UV irradiated; TUVJ4=[…] at Day 4; P1J4: product A 4% non irradiated at D4; P2J4: product A 2% non irradiated at D4; P3J4: product A 1% non irradiated at D4; P1UV: product A 4% UV irradiated; P1UVJ4: product A 4% UV irradiated at D4 P2UV: product A 2% UV irradiated; P2UVJ4: product A 2% UV irradiated at D4; P3UV: product A 1% UV irradiated; P3UVJ4: product A 1% UV irradiated at D4
# [5] = tested on: human living skin explant; assay: Immunostaining of carbonylated proteins (FTZ) on human living skin explants; conditions: UV irradiated
# Experimental: as §5, §6, §7, §8
# Protein carbonylation is a type of protein oxidation that can be promoted by reactive oxygen species (ROS), generated by UV exposure. FTZ marker assay was conducted by immunostaining in the living epidermis of human skin explant as follows: Carbonylated proteins were stained on frozen sections with the anti-carbonylated proteins probe (fluorescein-5-thiosemicarbazid-FTZ) (Lifetechnologies, Ref. F-121) diluted at 0.5 μM in MES-Na+ and incubated for 30 minutes in the dark and at room temperature. The staining was observed by epifluorescence and assessed by microscopical observations. Batches analyzed were T, TUV, P1UV, P2UV, P3UV at day 4 also referred to as TJ4, TUVJ4, P1UVJ4, P2UVJ4, P3UVJ4
# [6] = after pollutants exposure, day 5
structure (smiles),measurement,setting,value
"O=C(O)[C@@H]1CCCN1 [Combination P6, L-Proline]","AHR, variation PML vs ML",[1]; [6],−15%**
same,decrease of AhR expression compared to batch TJ5,"[1]; without pollutants, D5",63%
same,"AHR, variation P vs T","[1]; without pollutants, day 5",−63%*
same,"MDA, variation ΔPML vs ΔML","[2]; MDA induction by pollutants, day 5",−62%*
same,reduction of the increase of MDA,[2]; after pollutant exposure (ΔPML vs ΔML),62%
same,"MDA, variation PML vs ML",[2]; [6],−18%*
same,"Cell Viability, variation vs TJ4",[3],↔ (indicates no variation)
same,activity against UV-induced DNA damage,[4],totally inhibits the increase of DNA damage
same,effect on UV-induced carbonylated proteins,[5],slightly inhibits the formation of carbonylated proteins
